Data published in patent publication US20220249596A1, “PIC1 PEPTIDE COMPOSITIONS AND METHODS OF USE THEREOF FOR TREATMENT OF HYPOXIC ISCHEMIC ENCEPHALOPATHY” (REALTA HOLDINGS, LLC, priority 2019, published 2022).
Entries after “also recorded” stand apart in the source; their conditions may differ. No end group written: not given here.

Assays:
Format in all cases: in vivo, rat
T-maze test = conditions: six weeks after surgery, between study groups, pooled and separated genders
Excerpt: No other preparation was needed. The thawed tubes were kept on ice until dosing.
The T-maze test apparatus was plastic with two 45 cm long arms, which extend at right-angles from a 57 cm long alley (see www.noldus.com/animal-behavior-research/t-maze). The arms have a width of 10 cm and were surrounded by 10 cm high walls. The test consists of two trials at an interval of five minutes, during which time the animals are returned to their home cages. During an eight minute acquisition trial, one of the short arms was closed. In a three minute test trial, rats had access to both arms and to the alley. Time spent in each of the arms and in the long alley was assessed. Cognitively healthy rats tended to spend more time in the novel arm than in the familiar one or in the alley.
In an eight minute acquisition trial, while the novel arm is blocked, each rat was lowered to the beginning of the alley arm, facing the wall, and allowed to freely explore the maze's arms (start arm (alley arm), center and familiar arm), while the novel arm was inaccessible. […]
During the three minute test trial, with all three arms accessible (the wall of the novel arm was removed), each rat was allowed to freely explore the whole maze. Time spent in each of the arms was recorded using EthoVision XT 11 automated tracking system (Noldus Information Technology).

C1q [1] = experiment: Systemic C1q level in plasma, fluorescent immunoassay; conditions: 8, 12 and 24 hours after initial insult, P<0.05
Description: The local and systemic effects of NT, HT and PIC1 treatment on the complement cascade were measured. CNS C1q levels and systemic C1q and C5a levels were measured using a fluorescent immunoassay.
Systemic C1q and C5a levels were measured as follows. 100 μl of 1:5 plasma in 1×PBS was added to the wells of a plate described above and incubated overnight at 4° C. The plates were washed 3 times with PBST and blocked with NDS or NGS for one hour. Samples were probed with either 1:50 goat anti-human C1q (Complement Technology) in NDS or 1:200 mouse anti-human C5a (Human Complement Component C5a DuoSet ELISA, R&D Systems, Inc., Minneapolis, Minn.) in NGS for one hour at RT. The wells were washed and 1:500 donkey anti-goat 488 (Life Technologies) in NDS or 1:500 goat anti-mouse AF 568 (Life Technologies) in NGS was added, and incubated for one hour at RT. The wells were washed and the plate read using a Synergy HT (BioTek). Systemic C3a levels in plasma (1:20 dilution) were measured using a standard ELISA, according to the manufacturer's instructions (Rat C3a ELISA Kit, TSZ ELISA, Waltham, Mass.).

C1q [2] = experiment: Immunofluorescence quantification of C1q in brain; conditions: ipsilateral cortex and hippocampus, 48 hours, versus NT and HT, P<0.05
Description: (§1) TUNEL/C1q staining was performed as follows. Five (5) μm paraffin-embedded coronal brain sections on slides were incubated (1 hour; 60° C.), deparaffinized with xylene, and rehydrated with ethanol (100%, 95%, 70%; RT). Endogenous peroxidase activity was blocked (0.3% H2O2/MeOH; 10 minutes; RT), and heat induced antigen retrieval was performed (when indicated) using 10 mM sodium citrate, pH 6.0. 10% normal serum (from the same species as the host of the secondary antibody) was used to block and to dilute antibodies. Samples were washed twice for 10 min each, in PBST between each step.
(§2) After blocking for one hour at room temperature, tissues were incubated with 1:300 goat anti-Iba1 (Abcam), 1:250 goat anti-GFAP (Abcam), 1:500 chicken anti-NeuN (Millipore, Billerica, Mass.), or 1:100 mouse anti-NeuN (Millipore) in host appropriate blocking serum overnight at 4° C. Primary antibodies were probed with 1:500 donkey anti-goat (Abcam), goat anti-chicken (Abcam), or goat anti-mouse (Abcam) AF 488 or 568 in appropriate blocking serum for one hour at room temperature. Tissues were blocked a second time with NGS for one hour at room temperature. […]

[3] = Beam walk assay, fine motor coordination and balance; conditions: versus NT animals
Description: Fine motor coordination and balance was assessed by a beam walk assay, which was performed as follows. Gross motor function and balance was evaluated using the beam walking test 6 weeks after HIE. Beams of varying widths (19 mm, 13 mm, or 6 mm) were used that led to a dark escape box. Each beam was 90 cm long and elevated 60 cm from the ground. The goal of this test is for the rat to stay upright and walk across elevated narrow beams of decreasing width (0.75 and 0.25 inches, or 19 mm and 6 mm) to a safe platform.
Rats were placed on a loading platform on the proximal end of the apparatus, and instinctively walked towards the box when placed on a beam. Rats were trained on each beam prior to the test. On the test day, rats were placed on the loading platform, and videos were recorded. Rats were given up to 5 attempts to cross each beam. Failures, i.e., inability to cross along with right and left foot slips, were analyzed by an investigator blinded to the treatment

[4] = Novel object recognition test; conditions: 8 weeks after HIE, versus HT and NT animals, P<0.05
Description: The novel object recognition test was performed at 8 weeks after HIE to test cognitive function by evaluating the differences in the exploration time of novel and familiar objects. The novel object recognition task tests for short-term, intermediate and long-term memory without the need for external motivation, reward, or punishment. Results on the test are influenced by both hippocampal and cortical injury. The test is based on the concept that when animals are exposed to a familiar and a novel object, they spend more time exploring the novel object. It is thought that the recognition of novelty requires more cognitive skills from the subject.
Rats were trained for two days prior to novel object testing. During the training sessions, the rat was allowed to explore the testing chamber, a polycarbonate box (40×40 cm) with two identical objects for three minutes. On testing day, one of the familiar objects was replaced with a novel object, made with the same material but a different shape, and allowed to explore for three minutes. Video recordings of the interactions were reviewed by blinded investigators. Object exploration was defined as the rat directing its nose toward the object at a distance of less than 2 cm. The DINOR was calculated as ((time with novel object−time with familiar object))/(total time spent with objects).

C3 = experiment: Immunofluorescence quantification of C3 in brain; conditions: ipsilateral cortex and hippocampus, 48 hours, versus NT, P<0.05
Description: as §1, §2

Substance: IALILEPICCQERAA-dPEG24 (cysteine pairing not given here) [PIC1]
- T-maze: time spent in novel and familiar arms, alley, center (T-maze test): no significant differences; also recorded: No statistical significances
- C1q levels in plasma, NT animals relative to PIC1-treated animals (C1q [1]): significantly higher
- C1q expression (C1q [2]): significant reduction
- beam walk performance ([3]; 0.25 inch beam): performed significantly better
- beam walk performance ([3]; 0.75 inch beam): performed significantly better
- novel object recognition: proportion of time exploring the novel object [4]: significantly higher proportion of time
- C3 expression (C3): decreased expression
